Some test systems named below: BT-549 breast; CCRF-CEM leukemia; HT29 colon; MDA-MB-231 breast; PC-3 prostate; SF-295 CNS; SK-MEL-28 melanoma; SNB-19 CNS; TK-10 renal; OVCAR-3 ovarian.
Assay in all cases: growth of human tumour cells (NCI), 48 h

“And” between values parts separate entries of the source, which are not always exact repeats. Equal values may be shown once.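 Compound exposure: 48 hours, 5 concentrations, 96-well plates. At the GI50, growth is halved. The concentration for full growth arrest is given as TGI.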

Results on eleven compounds are retold here after PubChem BioAssay (NCI).

With `Cc1ccc(S(=O)(=O)NC(=O)NCCC(=O)O)cc1`, the TGI in the assay with BT-549 breast, in the assay on CCRF-CEM leukemia, with HT29 colon, in the assay on MDA-MB-231 breast, with PC-3 prostate and in the assay on SF-295 CNS was above 100 µM each time. Also, the TGI with SK-MEL-28 melanoma, in the assay on SNB-19 CNS and in the assay with TK-10 renal was above 100 µM each time.
In the case of `CN(C)CCCNc1c2ccccc2nc2cccc([N+](=O)[O-])c12`, the TGI in the assay with BT-549 breast was 0.0151 µM; in the assay with CCRF-CEM leukemia it was 0.196 µM; with MDA-MB-231 breast, 0.00712 µM; in the assay with OVCAR-3 ovarian, 0.0673 µM; in the assay on PC-3 prostate, 0.00244 µM; with SF-295 CNS, 0.0167 µM and 0.0867 µM. For the same compound, the TGI was 0.00689 µM and 0.0422 µM in the assay on SK-MEL-28 melanoma; 0.0171 µM and 0.142 µM in the assay with SNB-19 CNS; 0.00909 µM and 0.0869 µM with TK-10 renal. The GI50 in the assay on CCRF-CEM leukemia was 0.029 µM; with SF-295 CNS, below 0.001 µM; with SK-MEL-28 melanoma, 0.0202 µM; with SNB-19 CNS it was 0.0303 µM; in the assay with TK-10 renal, 0.0203 µM.
For the compound `COc1ccc(/C=C(\C(=C/c2ccc(OC)cc2)[N+](=O)[O-])[N+](=O)[O-])cc1`, the TGI was 21.4 µM in the assay with BT-549 breast; 11.1 µM in the assay on HT29 colon; 5.56 µM in the assay on MDA-MB-231 breast; 71.4 µM in the assay with OVCAR-3 ovarian; above 39.7 µM with PC-3 prostate; 30.2 µM in the assay on SF-295 CNS. For the same compound, the TGI stood at 6.76 µM with SK-MEL-28 melanoma, 30.2 µM in the assay with SNB-19 CNS and 12.2 µM in the assay with TK-10 renal.
With `CCCn1c(=O)c2ccccc2[n+]2c(-c3ccc([N+](=O)[O-])cc3)csc12`, the TGI in the assay with BT-549 breast is above 100 µM; in the assay with CCRF-CEM leukemia it was 82.5 µM; with HT29 colon, above 100 µM; in the assay on MDA-MB-231 breast, above 100 µM; with PC-3 prostate, above 100 µM; in the assay with SF-295 CNS, above 100 µM. In addition, the TGI in the assay on SNB-19 CNS is above 100 µM.
Take `Nc1ccccc1NC(=O)CCCCCCC(=O)Nc1ccc2c(c1)/C(=C/c1ccc[nH]1)C(=O)N2`: the GI50 in the assay with BT-549 breast is 0.391 µM; in the assay with CCRF-CEM leukemia it was 0.419 µM; with HT29 colon, above 100 µM; in the assay on MDA-MB-231 breast, above 100 µM; with OVCAR-3 ovarian, 5.42 µM; with PC-3 prostate, 6.92 µM. Moreover, the GI50 with SF-295 CNS, with SK-MEL-28 melanoma and in the assay with SNB-19 CNS was above 100 µM in each case. The TGI in the assay with BT-549 breast, in the assay on CCRF-CEM leukemia, in the assay on HT29 colon, in the assay with MDA-MB-231 breast, with OVCAR-3 ovarian and in the assay with PC-3 prostate was above 100 µM in each case. Further, the TGI with SF-295 CNS, in the assay on SK-MEL-28 melanoma and in the assay with SNB-19 CNS was above 100 µM in each case.
For `CCc1nn(S(=O)(=O)c2ccc(C)cc2)c2c1CS(=O)(=O)CC2`, the TGI with BT-549 breast, in the assay on HT29 colon, in the assay with MDA-MB-231 breast, in the assay with OVCAR-3 ovarian, in the assay on PC-3 prostate and in the assay on SF-295 CNS was above 100 µM throughout. Moreover, the TGI in the assay on SK-MEL-28 melanoma, in the assay on SNB-19 CNS and in the assay with TK-10 renal was above 100 µM throughout.
On to `COc1ccc(-c2nc(-c3cc4ccccc4oc3=O)cs2)cc1`, for which the TGI is above 100 µM with BT-549 breast; above 100 µM in the assay with CCRF-CEM leukemia; above 100 µM in the assay with HT29 colon; 53.8 µM with MDA-MB-231 breast; above 100 µM with PC-3 prostate; above 100 µM with SF-295 CNS. In addition, the TGI in the assay on SK-MEL-28 melanoma, with SNB-19 CNS and in the assay with TK-10 renal was above 100 µM each time.
Turning to `O=C1CSC2=NCC3(NN12)c1ccccc1-c1ccccc13`, the TGI in the assay with BT-549 breast, with CCRF-CEM leukemia, with HT29 colon, in the assay with MDA-MB-231 breast, in the assay on PC-3 prostate and in the assay with SF-295 CNS was above 10 µM in each case. The TGI in the assay with SK-MEL-28 melanoma, in the assay with SNB-19 CNS and in the assay on TK-10 renal was above 10 µM in each case.
Turning to `Cn1c(-c2ccc[se]2)ccc1-c1ccc(CO)[se]1`, the TGI in the assay with BT-549 breast was above 100 µM; with CCRF-CEM leukemia it was above 100 µM; with MDA-MB-231 breast, above 88.2 µM; in the assay with PC-3 prostate, above 100 µM; in the assay on SF-295 CNS, above 100 µM; in the assay on SK-MEL-28 melanoma, above 100 µM. This compound registered a TGI in the assay on SNB-19 CNS above 100 µM.
With `CCN(CC)C(=S)N/N=C/c1ccccn1`, the TGI was above 100 µM in the assay with BT-549 breast; above 100 µM in the assay on CCRF-CEM leukemia; above 100 µM in the assay with HT29 colon; above 100 µM in the assay on MDA-MB-231 breast; 11 µM in the assay on OVCAR-3 ovarian; above 100 µM with PC-3 prostate. The figures for the TGI in the assay on SF-295 CNS, in the assay on SK-MEL-28 melanoma and with SNB-19 CNS were above 77.1 µM, above 100 µM and above 100 µM, respectively.
On to `Cc1cn(CC2=NCCCN2)c(=O)[nH]c1=O`, for which the TGI in the assay on BT-549 breast, in the assay with CCRF-CEM leukemia, in the assay on HT29 colon, with MDA-MB-231 breast, with PC-3 prostate and in the assay on SF-295 CNS was above 100 µM in each case. In addition, the TGI in the assay on SK-MEL-28 melanoma, with SNB-19 CNS and with TK-10 renal was above 100 µM throughout.
